# Data reported in ChEMBL document CHEMBL5136972, “Targeting SARS-CoV-2 Proteases and Polymerase for COVID-19 Treatment: State of the Art and Future Opportunities” (J Med Chem, 2022).
# Molecular target: Replicase polyprotein 1ab (Severe acute respiratory syndrome coronavirus 2, UniProt P0DTD1)
structure (smiles),measurement,value
Cc1cc(C(=O)N[C@@H](C)C(=O)N[C@H](C(=O)N[C@@H](CC(C)C)C(=O)N[C@H](/C=C/C(=O)OCc2ccccc2)C[C@@H]2CCNC2=O)C(C)C)no1,Ki,9 µM
